Laboratory results as given in patent US20250282799A1, “SUBSTITUTED PYRIDO[4,3-d]PYRIMIDINES AS KRAS MODULATORS” (Alterome Therapeutics, Inc., priority 2023, published 2025).

Each compound was assayed on KRAS G12V dependent lung adenocarcinoma cell line, NCI-H441 (assay: Cellular pERK (Thr202/Tyr204) FRET/HTRF assay). Settings: Homo sapiens, NCI-H441, cellular pERK (Thr202/Tyr204) HTRF, NCI-H441 cells.
Format: cell-based
Summary of the method: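 NCI-H441 cells (KRAS G12V) plated overnight at 37 °C, then exposed to compounds for 1 hr at 37 °C, 5% CO2; DMSO as negative control. Lysates read by Eu-cryptate/d2 sandwich FRET (665 nm) for ERK1/2 phosphorylated at Thr202/Tyr204; IC50 from curve fit.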

| SMILES | IC50 [nM] |
| --- | --- |
| [2H]C([2H])(Oc1nc(N2CCOC[C@H]3[C@H](F)[C@H]32)c2cnc(-c3cc(N)cc(C4CC4)c3C(F)(F)F)c(F)c2n1)[C@@]12CCCN1C[C@H](F)C2 [Example 165, 3-cyclopropyl-5-(8-fluoro-4-((1S,7S,8S)-8-fluoro-5-oxa-2-azabicyclo[5.1.0]octan-2-yl)-2-(((2R,7aS)-2-fluorotetrahydro-1H-pyrrolizin-7a(5H)-yl)methoxy-d2)pyrido[4,3-d]pyrimidin-7-yl)-4-(trifluoromethyl)aniline] | 50 to 500 |
| [2H]C([2H])(Oc1nc(N2CCC=C[C@H]3[C@H](F)[C@H]32)c2cnc(-c3cc(N)cc4cc(F)c(F)c(C#C)c34)c(F)c2n1)[C@@]12CCCN1C[C@H](F)C2 [Example 94, 5-ethynyl-6,7-difluoro-4-(8-fluoro-4-((1S,7R,8S)-8-fluoro-2-azabicyclo[5.1.0]oct-5-en-2-yl)-2-(((2R,7aS)-2-fluorotetrahydro-1H-pyrrolizin-7a(5H)-yl)methoxy-d2)pyrido[4,3-d]pyrimidin-7-yl)naphthalen-2-amine] | < 50 |
| [2H]C([2H])(F)Oc1c(F)c(F)cc2cccc(-c3ncc4c(N5CCCC[C@H]6[C@H](F)[C@H]65)nc(OC([2H])([2H])[C@@]56CCCN5C[C@H](F)C6)nc4c3F)c12 [Example 95, 7-(6,7-difluoro-8-(fluoromethoxy-d2)naphthalen-1-yl)-8-fluoro-4-((1S,7R,8S)-8-fluoro-2-azabicyclo[5.1.0]octan-2-yl)-2-(((2R,7aS)-2-fluorotetrahydro-1H-pyrrolizin-7a(5H)-yl)methoxy-d2)pyrido[4,3-d]pyrimidine] | < 50 |
| [2H]C1([2H])CC2(CC2)[C@@]2(C([2H])([2H])Oc3nc(N4CCOC[C@H]5[C@H](F)[C@H]54)c4cnc(-c5cc(N)cc6ccc(F)c(C#C)c56)c(F)c4n3)C[C@]([2H])(F)CN12 (single isomer, unassigned) [Example 203] | < 50 |
| C#Cc1c(F)ccc2cc(O)cc(-c3ncc4c(N5CCCO[C@@H]6C[C@@H]65)nc(OC[C@H]5CCCN5C)nc4c3F)c12 [Example 280, 4-(4-((1R,7S)-2-oxa-6-azabicyclo[5.1.0]octan-6-yl)-8-fluoro-2-(((R)-1-methylpyrrolidin-2-yl)methoxy)pyrido[4,3-d]pyrimidin-7-yl)-5-ethynyl-6-fluoronaphthalen-2-ol] | 50 to 500 |

Now from value to compound:

| IC50 [nM] | SMILES |
| --- | --- |
| < 50 | C#Cc1c(F)ccc2cccc(-c3ncc4c(N5CCCC[C@H]6[C@H](F)[C@H]65)nc(OC[C@]56C/C(=C\F)CN5CCC65CC5)nc4c3F)c12 [Example 377, (R,E)-7a′-(((7-(8-ethynyl-7-fluoronaphthalen-1-yl)-8-fluoro-4-((1S,7R,8S)-8-fluoro-2-azabicyclo[5.1.0]octan-2-yl)pyrido[4,3-d]pyrimidin-2-yl)oxy)methyl)-6′-(fluoromethylene)hexahydrospiro[cyclopropane-1,1′-pyrrolizine]] |
| < 50 | C=C1CN2CCC3(CC3)[C@@]2(COc2nc(N3CCOC[C@H]4[C@H](F)[C@H]43)c3cnc(-c4cc(N)c(F)c(C)c4C(F)(F)F)c(F)c3n2)C1 [Example 226, 2-fluoro-5-(8-fluoro-4-((1S,7S,8S)-8-fluoro-5-oxa-2-azabicyclo[5.1.0]octan-2-yl)-2-(((R)-6′-methylenetetrahydrospiro[cyclopropane-1,1′-pyrrolizin]-7a′(5′H)-yl)methoxy)pyrido[4,3-d]pyrimidin-7-yl)-3-methyl-4-(trifluoromethyl)aniline] |
| 50 to 500 | C#Cc1c(F)ccc2cc(N)cc(-c3ncc4c(N5CCOC[C@H]6[C@H](F)[C@H]65)nc(OC[C@]56C[C@@H](F)CN5C[C@@H](CN)C6)nc4c3F)c12 [Example 258, 4-(2-(((2R,6R,7aS)-2-(aminomethyl)-6-fluorotetrahydro-1H-pyrrolizin-7a(5H)-yl)methoxy)-8-fluoro-4-((1S,7S,8S)-8-fluoro-5-oxa-2-azabicyclo[5.1.0]octan-2-yl)pyrido[4,3-d]pyrimidin-7-yl)-5-ethynyl-6-fluoronaphthalen-2-amine] |
| < 50 | [2H]C([2H])(Oc1nc(N2CCOC[C@H]3[C@H](F)[C@H]32)c2cnc(-c3cc(N)cc4ccc(F)c(C#C)c34)c(F)c2n1)[C@@]12CCCN1C[C@H](C#N)C2 [Example 276, (2R,7aS)-7a-(((7-(3-amino-8-ethynyl-7-fluoronaphthalen-1-yl)-8-fluoro-4-((1S,7S,8S)-8-fluoro-5-oxa-2-azabicyclo[5.1.0]octan-2-yl)pyrido[4,3-d]pyrimidin-2-yl)oxy)methyl-d2)hexahydro-1H-pyrrolizine-2-carbonitrile] |
| < 50 | C#Cc1c(F)ccc2cc(N)cc(-c3ncc4c(N5CCOC[C@H]6[C@H](F)[C@H]65)nc(OC[C@@]56CCCN5C[C@@]5(C[C@@H]5F)C6)nc4c3F)c12 (single isomer, unassigned) [Example 252] |
| 50 to 500 | [2H]C([2H])(Oc1nc(N2CCCC[C@H]3[C@H](F)[C@H]32)c2cnc(-c3nc(N)cc4ccc(F)c(Cl)c34)c(F)c2n1)[C@@]12CCCN1C[C@H](F)C2 [Example 153, 8-chloro-7-fluoro-1-(8-fluoro-4-((1S,7R,8S)-8-fluoro-2-azabicyclo[5.1.0]octan-2-yl)-2-(((2R,7aS)-2-fluorotetrahydro-1H-pyrrolizin-7a(5H)-yl)methoxy-d2)pyrido[4,3-d]pyrimidin-7-yl)isoquinolin-3-amine] |

Same assay, conditions: Homo sapiens, NCI-H441, cellular pERK HTRF, NCI-H441 (KRAS G12V) cells

| IC50 [nM] | SMILES |
| --- | --- |
| < 50 | [2H]C([2H])(Oc1nc(N2CCCC[C@H]3[C@H](F)[C@H]32)c2cnc(-c3cc(O)cc4ccc(F)c(C#C)c34)c(C)c2n1)[C@@]12CCCN1CC(=C)C2 [Example 461, 5-Ethynyl-6-fluoro-4-(4-((1S,7R,8S)-8-fluoro-2-azabicyclo[5.1.0]octan-2-yl)-8-methyl-2-(((S)-2-methylenetetrahydro-1H-pyrrolizin-7a(5H)-yl)methoxy-d2)pyrido[4,3-d]pyrimidin-7-yl)naphthalen-2-ol] |

Same assay, conditions: Homo sapiens, NCI-H441, pERK HTRF, NCI-H441 cells (KRAS G12V)

| IC50 [nM] | SMILES |
| --- | --- |
| < 50 | C#Cc1c(F)ccc2cc(O)cc(-c3ncc4c(N5CCC6CC6CC5)nc(OC[C@@]56CCCN5C[C@H](F)C6)nc4c3F)c12 (stereo partly drawn) [Example 3, 4-(4-(4-Azabicyclo[5.1.0]octan-4-yl)-8-fluoro-2-(((2R,7aS)-2-fluorotetrahydro-1H-pyrrolizin-7a(5H)-yl)methoxy)pyrido[4,3-d]pyrimidin-7-yl)-5-ethynyl-6-fluoronaphthalen-2-ol] |
| < 50 | [2H]C([2H])([2H])Oc1c(F)c(F)c(F)c2cc(N)cc(-c3ncc4c(N5CCCC[C@H]6[C@H](F)[C@H]65)nc(OC([2H])([2H])[C@@]56CCCN5C[C@H](F)C6)nc4c3F)c12 [Example 69, 6,7,8-Trifluoro-4-(8-fluoro-4-((1S,7R,8S)-8-fluoro-2-azabicyclo[5.1.0]octan-2-yl)-2-(((2R,7aS)-2-fluorotetrahydro-1H-pyrrolizin-7a(5H)-yl)methoxy-d2)pyrido[4,3-d]pyrimidin-7-yl)-5-(methoxy-d3)naphthalen-2-amine] |

Same assay, conditions: cellular pERK (Thr202/Tyr204) HTRF, NCI-H441 cells

| IC50 [nM] | SMILES |
| --- | --- |
| < 50 | [2H]C([2H])(Oc1nc(N2CCOC[C@H]3[C@H](F)[C@H]32)c2cc(C#N)c(-c3ccc(F)c4sc(N)c(C#N)c34)c(F)c2n1)[C@@]12CCCN1C[C@H](F)C2 (atropisomer, axis not shown; (aS)) [Example 349, (S)-7-(2-amino-3-cyano-7-fluorobenzo[b]thiophen-4-yl)-8-fluoro-4-((1S,7S,8S)-8-fluoro-5-oxa-2-azabicyclo[5.1.0]octan-2-yl)-2-(((2R,7aS)-2-fluorotetrahydro-1H-pyrrolizin-7a(5H)-yl)methoxy-d2)quinazoline-6-carbonitrile] |
